# Structures can show the parent of a compound that is named as a salt.
# Columns and labels:
# H. Pacifica = assay: Biofilm inhibition screen of TABLE 1, H. pacifica; assay type: cell-based, Halomonas pacifica; design: key: “X” denotes biofilm inhibition; conditions: 500 μM active compound, 24 hours
# Method: (§1) Each compound was assayed for the ability to inhibit the formation of P. aeruginosa biofilms. […] We employed a standard crystal violet reporter assay to assess for the formation of biofilms. Briefly, P. aeruginosa strain PAO1 was allowed to form biofilms in a multi-well plate in the absence or presence of our compounds. Planktonic (or free growing) bacteria were then removed, wells washed vigorously, and crystal violet added. Crystal violet stains the remaining bacteria which, following ethanol solubilization, can be quantitated by spectrophotometry (A540).
# (§2) Active compounds were tested for inhibition of biofilm formation using various bacterial strains. Assays were performed as reported above, with 500 μM active compound, and 24 hours. “X” denotes biofilm inhibition.
# P. aeruginosa = assay: Biofilm inhibition screen of TABLE 1, P. aeruginosa; assay type: cell-based, Pseudomonas aeruginosa; design: key: “X” denotes biofilm inhibition; conditions: 500 μM active compound, 24 hours
# Method: as §1, §2
# [1] = system: P. aeruginosa strain PAO1; assay: Static biofilm inhibition assay (crystal violet), PAO1; assay type: cell-based, Pseudomonas aeruginosa; conditions: for inhibition at 500 µM / IC50: Pseudomonas aeruginosa, PAO1; for IC50: inhibition of biofilm formation, crystal violet, 24 hours
# Method: as §1
# (§3) An overnight culture of the bacterial strain being screened against was subcultured at an OD600 of 0.1 into the media used (listed below with strain) and then pipetted into test tubes along with a predetermined concentration of our compound of interest. Test tubes were then poured into tilted Petri dishes and 100 μL of media, strain and compound were then transferred into 96-well PVC microtiter plates. These microtiter plates were then covered, wrapped in Saran™ Wrap polyethylene film (S.C. Johnson, Racine, Wis.) and allowed to incubate at 37° C. for 24 hours. After that time, the medium was discarded and the plates were thoroughly washed with water. The remaining biofilm that was formed during incubation was stained with 100 μL of a 0.1% crystal violet solution and allowed to incubate at room temperature for 30 minutes. After 30 minutes, the crystal violet was discarded and washed thoroughly again with water. The remaining crystal violet that had stained the biofilm in the inside walls of the 96-well PVC plates was solubilized with 200 μL of 95% ethanol. The quantification of biofilm formation was accomplished by transferring 125 μL of the ethanol solution into a polystyrene microtiter dish, which was read by spectrophotometry (A540). After the background has been subtracted from each row, a percent inhibition can be calculated by dividing the amount of crystal violet in wells that contained compound by the amount of crystal violet in wells that contained bacteria only. Each concentration reported during the course of this study was repeated two to five times with each of those biofilm inhibition assays being done in 6 replicates each.
# (§4) An overnight culture of the wild type strain was subcultured at an OD600 of 0.10 into LBNS along with a predetermined concentration of the small molecule to be tested for biofilm inhibition. Samples were then aliquoted (100 μL) into the wells of a 96-well PVC microtiter plate. The microtiter dishes were covered and sealed before incubation under stationary conditions at 37° C. for 24 hours. After that time, the medium was discarded and the plates thoroughly washed with water. The wells were then inoculated with a 0.1% aqueous solution of crystal violet (100 μL) and allowed to stand at ambient temperature for 30 minutes. Following another thorough washing with water the remaining stain was solubilized with 200 μL of 95% ethanol. Biofilm inhibition was quantitated by measuring the OD540 for each well by transferring 125 μL of the ethanol solution into a fresh polystyrene microtiter dish for analysis.
# (§5) To examine each compound's ability to inhibit the formation of Pseudomonas aeruginosa biofilms, PAO1 and PA14 were employed as the target bacterial strains using a crystal violet reporter assay. G. A. O'Toole, R. Kolter, Mol. Microbiol. 1998, 28, 449. All compounds were initially screened at 500 μM for anti-biofilm activity.
# An overnight culture of the wild type strain was subcultured at an OD600 of 0.10 into LBNS along with a predetermined concentration of the small molecule to be tested for biofilm inhibition. Samples were then aliquoted (100 μL) into the wells of a 96-well PVC microtiter plate. The microtiter dishes were covered and sealed before incubation under stationary conditions at 37° C. for 24 hours, After that time, the medium was discarded and the plates thoroughly washed with water. […]
# P. aeruginosa PA14 = assay: Static biofilm inhibition assay (crystal violet), PA14; assay type: cell-based, Pseudomonas aeruginosa; conditions: for inhibition at 500 µM / IC50: Pseudomonas aeruginosa; for inhibition at 500 µM: PA14, 24 h; for IC50: PA14, inhibition of biofilm formation, crystal violet, 24 hours
# Method: as §3, §4, §5
# as §4, with “for 24 hours, After that” for “for 24 hours. After that”, “violet (100 pt) and allowed” for “violet (100 μL) and allowed”
# [2] = system: planktonic P. aeruginosa PAO1; assay: Planktonic growth (growth curves, colony counts), PAO1; assay type: cell-based, Pseudomonas aeruginosa; conditions: growth curves and/or colony counts, presence vs absence of compound, at IC50 or as stated
# Text: To answer the question of whether the compounds were antibiotics or true inhibitors of biofilm formation, we tested the ability of both compounds to inhibit growth of planktonic P. aeruginosa. Growth was quantitated by measuring optical density at 600 nm. […]
# [3] = system: planktonic P. aeruginosa PA14; assay: Planktonic growth (growth curves, colony counts), PA14; assay type: cell-based, Pseudomonas aeruginosa; conditions: growth curves and/or colony counts, presence vs absence of compound, at IC50 or as stated
# pre-formed PAO1 biofilms = assay: Static biofilm dispersion assay, PAO1; assay type: cell-based; conditions: Pseudomonas aeruginosa, 24-hour pre-formed biofilm, 24 hours treatment
# Method: (§6) One aspect associated with small molecule modulation of biofilm development is the ability to disperse a pre-formed biofilm. There have only been a limited number of examples in the literature of molecules that disperse bacterial biofilms. Banin et al., Appl. Environ. Microbiol., 2006, 72, 2064. L. M. Junker and J. Clardy, Antimicrob, Agents Ch., 2007, 51, 3582. Boles et al., Mol. Microbiol., 2005, 57, 1210. TAGE was assayed for its ability to disperse pre-formed PAO1 and PA14 biofilms. Each bacterial strain was allowed to form biofilms in a microtiter well for 24 hours in the absence of compound. […] After 24 hours, all the wells were washed vigorously to remove media and planktonic bacteria, and then were stained with crystal violet to quantify the amount of remaining biofilm Representative PAO1 results are depicted in FIG. 6.
# (§7) An overnight culture of either PAO1 or PA14 was subcultured at an OD600 of 0.5 into LBNS and aliquoted (100 μL) into the wells of a 96-well PVC microtiter plate. […] The quantification of remaining biofilm was accomplished by transferring 125 μL of the ethanol solution into a polystyrene microtiter dish, which was read by spectrophotometry (A540). Percent dispersion was calculated in the same manner as percent biofilm inhibition described previously in this experimental section. […]
# pre-formed PA14 biofilms = assay: Static biofilm dispersion assay, PA14; assay type: cell-based; conditions: Pseudomonas aeruginosa, 24-hour pre-formed biofilm, 24 hours treatment
# Method: as §6, §7
# V. Vulnificus = assay: Biofilm inhibition screen of TABLE 1, V. vulnificus; assay type: cell-based, Vibrio vulnificus; design: key: “X” denotes biofilm inhibition; conditions: 500 μM active compound, 24 hours
# Method: as §1, §2
# [4] = listed as oroidin 4, Hydrochloride
# [5] = listed as oroidin 5, Hydrochloride
# [6] = listed as oroidin (5), Hydrochloride
compound,measurement,setting,value
NC1=N/C(=C\CCNC(=O)c2cc(Br)c(Br)[nH]2)C(=O)N1,H. Pacifica biofilm inhibition,H. Pacifica,X
Nc1nc(Cc2c[nH]c3ccccc23)c[nH]1,P. aeruginosa biofilm inhibition,P. aeruginosa,X
same,H. Pacifica biofilm inhibition,H. Pacifica,X
"Cl.Cn1c(C(=O)NCCc2c[nH]c(N)n2)cc(Br)c1Br [Compound 27, 4,5-dibromo-1-methyl-pyrrole-2-carboxylic acid [2-(2-amino-1H-imidazol-4-yl)-ethyl]-amide hydrochloride]",inhibition at 500 µM,[1],> 95%
same,IC50,[1],165 ± 23 µM
same,inhibition at 500 µM,P. aeruginosa PA14,> 95%
same,IC50,P. aeruginosa PA14,224 ± 22 µM
same,microbicidal effect on PAO1 planktonic growth (in words),[2],no microbicidal activity
same,microbicidal effect on PA14 planktonic growth (in words),[3],no microbicidal activity
Nc1nc(CCCNC(=O)c2cc(Br)c[nH]2)c[nH]1 [drawing 73],P. aeruginosa biofilm inhibition,P. aeruginosa,X
same,H. Pacifica biofilm inhibition,H. Pacifica,X
"Cl.Cn1c(C(=O)NCCCCc2c[nH]c(N)n2)cc(Br)c1Br [Compound 30, 4,5-dibromo-1-methyl-pyrrole-2-carboxylic acid [4-(2-amino-1H-imidazol-4-yl)-butyl]-amide hydrochloride]",inhibition at 500 µM,[1],> 95%
same,IC50,[1],150 ± 17 µM
same,inhibition at 500 µM,P. aeruginosa PA14,> 95%
same,IC50,P. aeruginosa PA14,126 ± 17 µM
same,microbicidal effect on PAO1 planktonic growth (in words),[2],no microbicidal activity
same,microbicidal effect on PA14 planktonic growth (in words),[3],no microbicidal activity
NC[C@@H]1Cc2nc(N)[nH]c2C[C@@H]1CN,P. aeruginosa biofilm inhibition,P. aeruginosa,X
"CCCCCCCCCCCCNC(=O)CCCc1c[nH]c(N)n1.Cl [Compound 12, 4-(2-amino-1H-imidazol-4-yl)-N-dodecyl-butyramide hydrochloride]",IC50,[1],2.84 µM
same,IC50,P. aeruginosa PA14,2.26 µM
same,microbicidal effect on PAO1 planktonic growth (in words),[2],remained unchanged
same,microbicidal effect on PA14 planktonic growth (in words),[3],remained unchanged
same,EC50,pre-formed PAO1 biofilms,32.8 ± 4.7 µM
same,EC50,pre-formed PA14 biofilms,21.3 ± 3.9 µM
Nc1nc(CCCNC(=O)c2cc(Br)c(Br)[nH]2)c[nH]1 [drawing 74],H. Pacifica biofilm inhibition,H. Pacifica,X
NC[C@H]1Cc2nc(N)[nH]c2C[C@@H]1CN,P. aeruginosa biofilm inhibition,P. aeruginosa,X
same,V. Vulnificus biofilm inhibition,V. Vulnificus,X
same,H. Pacifica biofilm inhibition,H. Pacifica,X
Nc1nc(/C=C/CNC(=O)c2cc(Br)c(Br)[nH]2)c[nH]1,H. Pacifica biofilm inhibition,H. Pacifica,X
"Cl.Cn1c(C(=O)NCCc2c[nH]cn2)cc(Br)c1Br [Compound 40, 4,5-dibromo-1-methyl-pyrrole-2-carboxylic acid [2-(1H-imidazol-4-yl)-ethyl]-amide hydrochloride]",inhibition at 500 µM,[1],73%
same,IC50,[1],277 ± 35 µM
same,inhibition at 500 µM,P. aeruginosa PA14,82%
same,IC50,P. aeruginosa PA14,203 ± 25 µM
same,microbicidal effect on PAO1 planktonic growth (in words),[2],not inhibiting biofilm development through microbicidal activity
same,microbicidal effect on PA14 planktonic growth (in words),[3],not inhibiting biofilm development through microbicidal activity
Nc1nc(Cc2c[nH]cn2)c[nH]1,V. Vulnificus biofilm inhibition,V. Vulnificus,X
same,H. Pacifica biofilm inhibition,H. Pacifica,X
Nc1ncc2n1CCC2,V. Vulnificus biofilm inhibition,V. Vulnificus,X
"Nc1ncc(/C=C/CNC(=O)c2cc(Br)c(Br)[nH]2)[nH]1 [oroidin, Oroidin Hydrochloride, reference compound]",inhibition at 500 µM,[1],> 95%
same,IC50,[1],190 µM
same,inhibition of PAO1 biofilm formation (in words),[1]; screen at 500 μM,very potent inhibitors
same,inhibition at 500 µM,P. aeruginosa PA14,> 95%
same,IC50,P. aeruginosa PA14,166 µM
same,inhibition of PA14 biofilm formation (in words),P. aeruginosa PA14; screen at 500 μM,very potent inhibitors
same,microbicidal effect on PAO1 planktonic growth (in words),[2]; [4],remained unchanged
same,microbicidal effect on PAO1 planktonic growth (in words),[2]; [5],did not induce microbial cell death
same,microbicidal effect on PAO1 planktonic growth (in words),[2]; [6],not due to a bactericidal effect
same,microbicidal effect on PA14 planktonic growth (in words),[3]; [4],remained unchanged
same,microbicidal effect on PA14 planktonic growth (in words),[3]; [5],did not induce microbial cell death
same,microbicidal effect on PA14 planktonic growth (in words),[3]; [6],not due to a bactericidal effect
